# What was measured:
# Assay type in all cases: cell-based, mouse
# [1] = test system: α7 integrin (LacZ reporter in α7βgal+/− myoblasts); experiment: Myoblast α7+/LacZ integrin FDG assay (Burkin assay in myoblasts, 96-well); conditions: α7+/LacZ myoblasts, 96-well
# [2] = test system: α7 integrin (LacZ reporter in α7+/LacZ myotubes); experiment: Myotube α7 integrin FDG assay (Burkin assay in myotubes, 96-well); conditions: myotubes
# [3] = test system: β-galactosidase in CMV-LacZ C2C12 myotubes; experiment: CMV-LacZ secondary screen in C2C12 myotubes (β-Gal stabilizing assay); conditions: for CMV-LACZ in Myotubes (β-galactosidase activity relative to DMSO): CMV-LacZ C2C12 myotubes, 96-well format
# How it was run: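 Dose-response runs at 0.5–40 μM (0.5, 1, 5, 10, 20, 40 μM; N=2 per point) used a clonal C2C12 line carrying CMV-LacZ. Cells were assayed as myoblasts or as differentiated myotubes, and β-galactosidase levels were read with the FDG fluorogenic substrate.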
SMILES,"Burkin Assay in Myoblasts, value relative to DMSO ([1]; 0.5 uM)","Burkin Assay in Myoblasts, value relative to DMSO ([1]; 1 uM)","Burkin Assay in Myoblasts, value relative to DMSO ([1]; 5 uM)","Burkin Assay in Myoblasts, value relative to DMSO ([1]; 10 uM)","Burkin Assay in Myoblasts, value relative to DMSO ([1]; 20 uM)","Burkin Assay in Myoblasts, value relative to DMSO ([1]; 40 uM)",Burkin Assay in Myotubes (signal relative to DMSO) ([2]; 0.5 uM),Burkin Assay in Myotubes (signal relative to DMSO) ([2]; 1 uM),Burkin Assay in Myotubes (signal relative to DMSO) ([2]; 5 uM),Burkin Assay in Myotubes (signal relative to DMSO) ([2]; 10 uM),Burkin Assay in Myotubes (signal relative to DMSO) ([2]; 20 uM),Burkin Assay in Myotubes (signal relative to DMSO) ([2]; 40 uM),CMV-LACZ in Myotubes (β-galactosidase activity relative to DMSO) ([3]; 5 uM),CMV-LACZ in Myotubes (β-galactosidase activity relative to DMSO) ([3]; 10 uM),CMV-LACZ in Myotubes (β-galactosidase activity relative to DMSO) ([3]; 20 uM),CMV-LACZ in Myotubes (β-galactosidase activity relative to DMSO) ([3]; 40 uM),other results
O=C1CCc2cc(S(=O)(=O)Nc3ccc(C(F)(F)F)cc3)cc3c2N1CC3 [MLS001237320-01],,,,,,,,,,,,,,,,,"Burkin Assay in Myoblasts, signal relative to DMSO ([1]; 0.5 uM): 0.9733; Burkin Assay in Myoblasts, signal relative to DMSO ([1]; 1 uM): 0.9848; Burkin Assay in Myoblasts, signal relative to DMSO ([1]; 5 uM): 0.9145; Burkin Assay in Myoblasts, signal relative to DMSO ([1]; 10 uM): 0.8495; Burkin Assay in Myoblasts, signal relative to DMSO ([1]; 20 uM): 0.9287; Burkin Assay in Myoblasts, signal relative to DMSO ([1]; 40 uM): 0.8187; Burkin Assay in Myotubes, α7 integrin LacZ reporter signal relative to DMSO ([2]; 0.5 uM): 0.9879; Burkin Assay in Myotubes, α7 integrin LacZ reporter signal relative to DMSO ([2]; 1 uM): 1.055; Burkin Assay in Myotubes, α7 integrin LacZ reporter signal relative to DMSO ([2]; 5 uM): 1.035; Burkin Assay in Myotubes, α7 integrin LacZ reporter signal relative to DMSO ([2]; 10 uM): 0.6554; Burkin Assay in Myotubes, α7 integrin LacZ reporter signal relative to DMSO ([2]; 20 uM): 0.9912; Burkin Assay in Myotubes, α7 integrin LacZ reporter signal relative to DMSO ([2]; 40 uM): 0.9787; CMV-LACZ in Myotubes, signal relative to DMSO ([3]; 5 uM, C2C12 CMV-LacZ myotubes, fold relative to DMSO): 0.9582; CMV-LACZ in Myotubes, signal relative to DMSO ([3]; 10 uM, C2C12 CMV-LacZ myotubes, fold relative to DMSO): 0.7569; CMV-LACZ in Myotubes, signal relative to DMSO ([3]; 20 uM, C2C12 CMV-LacZ myotubes, fold relative to DMSO): 0.9895; CMV-LACZ in Myotubes, signal relative to DMSO ([3]; 40 uM, C2C12 CMV-LacZ myotubes, fold relative to DMSO): 1.082"
COCCN(CC(=O)Nc1cccc(C)c1C)C(=O)C1CCN(S(=O)(=O)c2ccccc2)CC1 [MLS002156278-01],0.8597,0.9642,1.01,0.9653,0.8604,0.8246,1.005,0.9637,0.6908,0.9924,0.9719,1.025,0.8694,1.096,0.9667,1.031,
CNc1nnc(SCC(=O)c2cc(C)n(C3CC3)c2C)s1 [MLS002156485-01],1.059,0.9382,0.9278,0.8752,1.052,1.026,1.0551,0.9807,1.2005,1.0687,1.057,1.156,0.9468,0.9523,1.115,0.9483,
Cc1ccc(OCC(=O)N2CCN(S(=O)(=O)c3ccc4c(c3)OCCO4)CC2)c(C)c1 [MLS002158881-01],,,,,,,,,,,,,,,,,"fold induction at 0.5 µM ([1]; Mus musculus, Myoblast, 48 h, 0.5 uM, read-out: Burkin Assay in Myoblasts, signal relative to DMSO): 0.888; fold induction at 1 µM ([1]; Mus musculus, Myoblast, 48 h, 1 uM, read-out: Burkin Assay in Myoblasts, signal relative to DMSO): 0.838; fold induction at 5 µM ([1]; Mus musculus, Myoblast, 48 h, 5 uM, read-out: Burkin Assay in Myoblasts, signal relative to DMSO): 0.989; fold induction at 10 µM ([1]; Mus musculus, Myoblast, 48 h, 10 uM, read-out: Burkin Assay in Myoblasts, signal relative to DMSO): 1.02; fold induction at 20 µM ([1]; Mus musculus, Myoblast, 48 h, 20 uM, read-out: Burkin Assay in Myoblasts, signal relative to DMSO): 1.12; fold induction at 40 µM ([1]; Mus musculus, Myoblast, 48 h, 40 uM, read-out: Burkin Assay in Myoblasts, signal relative to DMSO): 1.21; fold induction at 0.5 µM ([2]; Mus musculus, Myotube, 0.5 uM, read-out: Burkin Assay in Myotubes, α7 integrin LacZ reporter signal relative to DMSO): 0.896; fold induction at 1 µM ([2]; Mus musculus, Myotube, 1 uM, read-out: Burkin Assay in Myotubes, α7 integrin LacZ reporter signal relative to DMSO): 0.865; fold induction at 5 µM ([2]; Mus musculus, Myotube, 5 uM, read-out: Burkin Assay in Myotubes, α7 integrin LacZ reporter signal relative to DMSO): 0.67; fold induction at 10 µM ([2]; Mus musculus, Myotube, 10 uM, read-out: Burkin Assay in Myotubes, α7 integrin LacZ reporter signal relative to DMSO): 0.773; fold induction at 20 µM ([2]; Mus musculus, Myotube, 20 uM, read-out: Burkin Assay in Myotubes, α7 integrin LacZ reporter signal relative to DMSO): 1.2; fold induction at 40 µM ([2]; Mus musculus, Myotube, 40 uM, read-out: Burkin Assay in Myotubes, α7 integrin LacZ reporter signal relative to DMSO): 1; fold induction at 5 µM ([3]; Mus musculus, C2C12, read-out: CMV-LACZ in Myotubes, signal relative to DMSO, 5 uM, C2C12 CMV-LacZ myotubes, fold relative to DMSO): 0.792; fold induction at 10 µM ([3]; Mus musculus, C2C12, read-out: CMV-LACZ in Myotubes, signal relative to DMSO, 10 uM, C2C12 CMV-LacZ myotubes, fold relative to DMSO): 0.827; fold induction at 20 µM ([3]; Mus musculus, C2C12, read-out: CMV-LACZ in Myotubes, signal relative to DMSO, 20 uM, C2C12 CMV-LacZ myotubes, fold relative to DMSO): 0.864; fold induction at 40 µM ([3]; Mus musculus, C2C12, read-out: CMV-LACZ in Myotubes, signal relative to DMSO, 40 uM, C2C12 CMV-LacZ myotubes, fold relative to DMSO): 0.81"

# Source: patent US9980943B2, “Methods of treating muscular dystrophy” (BOARD OF REGENTS OF THE NEVADA SYSTEM OF HIGHER EDUCATION, …, priority 2013, dated 2018)
